# Like-named read-outs stand apart in the source and are kept apart here.
# Tests used:
# [1] = tested on: P. falciparum asexual blood stage parasites (strains NF54, D6, K1, W2, 7G8, TM90C2A, V1/S); assay: [3H]-hypoxanthine incorporation growth inhibition assay, asexual blood stage; format: cell-based, Plasmodium falciparum; settings: for IC50: Plasmodium falciparum; for resistance / retention of potency against resistant strains: drug-resistant strains; for fold reduction in potency: against all drug-resistant strains containing the mutated chloroquine transporter (PfCRT)
# Method: In vitro antimalarial activity was measured using the [^3H]-hypoxanthine incorporation assay with various strains of P. falciparum obtained from MR4. Results were expressed as the concentration resulting in 50% inhibition (IC50).
# The half-maximal inhibitory concentrations (IC50) were determined for each molecule (Table S2).
# Figure 2 The potencies of selected antimalarials against asexual blood stages. Main classes of antimalarials were tested against the blood stage of seven Plasmodium falciparum strains in the [^3H]hypoxanthine incorporation assay as described in Vennerstrom et al.. The strains tested here (obtained from MR4) were two drug-sensitive strains NF54 and D6 and five drug-resistant strains: K1, resistant to chloroquine (CQ) and pyrimethamine (PYR), origin Thailand, carries mutations in genes pfmdr1, pfcrt, pfdhfr, pfdhps; W2, resistant to CQ, PYR, quinine, cycloguanil, and sulfadoxine, origin Vietnam; 7G8, resistant to CQ and PYR, origin Brazil; TM90C2A, resistant to CQ, PYR, and MFQ, origin Thailand; and V1/S, resistant to CQ, PYR and cycloguanil, origin Vietnam. Results are expressed as the concentration resulting in 50% growth inhibition (IC50).Values are means of ≥3 independent experiments. (A) Endoperoxides. (B) 4-AQs. (C) 8-AQs and amino alcohols. (D) Antifolates, antibiotics, and others.
# [2] = tested on: P. yoelii liver stage parasites (liver schizonts); assay: P. yoelii liver stage assay in HepG2 cells (EEF immunofluorescence); format: cell-based, Plasmodium yoelii; settings: for IC50: Plasmodium yoelii; for potency range against liver stages: dose response
# Method: (§1) 7.5×10^3 HepG2 cells in 50 µl of medium (1.5×10^5 cells/ml) were seeded in 384 well plates (Aurora 384 IQ-EB Black/Clear Plates) 20–26 h prior to the actual infection. 2 h prior to infection, 50 nl of compound in DMSO (0.1% final DMSO concentration per well) were transferred with a PinTool (GNF Systems) into the assay plates (10 µM final concentration). P. yoelii sporozoites were freshly dissected from infected A. stephensi mosquito salivary glands and filtered twice with a 40-µm strainer. The HepG2 cells were then infected with 8×10^3 sporozoites per well. After infection and 1-h incubation at 37°C, the cultures were washed, new media and compound added, and further incubated with 5-fold increased concentration of penicillin/streptomycin for 48 h at 37°C before exoerythrocytic forms (EEFs) quantification of infected cells by immunofluorescence.
# After washing with 1×PBS and fixation of the cells with 4% paraformaldehyde solution (EMS), membranes were permeabilised with 0.5% Triton-X-100 (Thermo Fisher Scientific) and EEFs were stained using a mouse polyclonal serum raised against the Plasmodium heat shock protein 70 (HSP70), an Alexa goat antimouse IgG, Fca-specific DyLight 649 secondary antibody (Invitrogen), and the Hoechst 33342 nucleic acid dye (Invitrogen). Stained EEFs were then quantified using the Opera Confocal High Content Screening system (PerkinElmer). Images were collected using a 20× magnification at a binning of 2 using a 365 Xeon arc lamp illumination to detect the nuclei and 635-nm laser line to excite DyLight649.
# (§2) High-content imaging of infected HepG2-CD81 cells was performed as described in Meister et al.. Wells were analysed using a custom Acapella (PerkinElmer) script parameterized for this assay. In brief, images from fields inside the well were first discarded as out of focus when the intensity in the nuclear area was too low. Then hepatic cells were counted by detecting the nuclei labelled with Hoechst 33342 and parasites were segmented using the HSP70 immuno-labelling. Morphology-based (e.g., area, roundness) and intensity-based features were calculated for each object detected including the hepatocyte nuclei and the parasites. Parasitemia was set as the ratio between parasite number (Alexa fluor positive) and the hepatocyte nuclei count, determined at the same time.
# (§3) When an infected mosquito bites a host, ∼100 sporozoites may be injected into the dermis from where they rapidly invade liver cells,[33]. This infective step represents the second bottleneck during transmission and therefore another potentially vulnerable point for intervention. In the absence of a practical liver stage assay measuring the formation of P. falciparum/P. vivax liver schizonts, an equivalent assay was developed in P. yoelii and used to assess the activity of the collection of molecules against this specific stage. Specifically, P. yoelii sporozoites were dissected from the salivary glands of infected mosquitoes and were allowed to invade human hepatocarcinoma cells expressing the CD81 protein. The development of the liver schizonts was monitored by immunofluorescence staining using an HSP70 antibody specific to the parasite (Figure 4A).
# Figure 4 Validation and results of anti-infectives tested against P. yoelii liver stage parasites. (A) Opera-generated images from a time point experiment using a 20× objective lens. P. yoelii parasites (red) were visualized using a mouse polyclonal HSP70 antibody, and the HepG2 cells (green) were stained with Hoechst 33342 nucleic acid dye. […] (B) A dose response plot with atovaquone from data generated from the Opera imaging system. The median areas of compound-treated parasites were compared to untreated DMSO controls to determine the degree of inhibition.
# HepG2 cells = assay: Growth retardation of HepG2 cells; settings: for IC50: Homo sapiens, HepG2, read-out: IC50 HepG2
# Method: as §1, §2, §3
# [3] = tested on: P. falciparum mature gametocytes / male gamete exflagellation; assay: P. falciparum exflagellation assay; format: cell-based, Plasmodium falciparum; settings: for inhibition at 10 µM: Plasmodium falciparum
# Method: After 24 h, exflagellation was triggered by a temperature decrease to ∼21°C and observed 20 min later under the microscope. Highly motile exflagellation centres were recorded for ∼50–150 adjacent fields of view and reported per 10,000 RBCs.
# (A) Assays examined exflagellation (P. falciparum), ookinete formation (P. berghei), or oocyst formation (P. falciparum). All antimalarials were screened at 10 µM. (B) The biological content of the in vitro P. berghei ookinete assay spans gamete formation, fertilization, zygote development, and ookinete formation. […] (D) The in vitro P. falciparum exflagellation assay exposes mature gametocytes to antimalarials for 24 h before triggering exflagellation. […] All experiments in triplicate. (E) The in vivo P. falciparum oocyst assay differs from the P. berghei oocyst assay in that mature gametocytes were exposed to the antimalarials in culture for 24 h before feeding to mosquitoes.
# [4] = asexual blood stage, both drug-resistant and -sensitive strains, read-out: IC50
# [5] = HepG2, development of P. yoelii liver schizonts following infection of HepG2 cells, read-out: IC50 Parasite
# [6] = read-out: inhibition of exflagellation, 10 µM, 24 h exposure of mature gametocytes
# [7] = 10 μM, box linked to gametocytes/exflagellation, read-out: Inhibition at 10 μM (gametocytes/exflagellation, Figure 5)
# [8] = HepG2, box linked to liver schizont, read-out: IC50 (liver schizont, Figure 5)
# [9] = 10 µM, 24 h exposure of mature gametocytes
# [10] = HepG2, dose response, read-out: IC50 liver stage
# [11] = HepG2, dose response, median parasite area (Opera), read-out: IC50 liver stage
# [12] = asexual blood stage, all parasite lines, read-out: IC50
# [13] = asexual blood stage, all parasite lines
smiles,measurement,setting,value
[H]/N=C(\N/C(=N/[H])Nc1ccc(Cl)cc1)NC(C)C [proguanil],IC50,[1]; [4],1 to 10 µM
same,IC50,[2]; [5],11.8 ± 5.19 µM
same,IC50,HepG2 cells,15.4 ± 3.09 µM
same,CI (cytotoxicity index),HepG2 cells; IC50 HepG2 compared to IC50 parasite,1.31
Cc1cc(NS(=O)(=O)c2ccc(N)cc2)no1 [sulfamethoxazole],inhibition at 10 µM,[3]; [6],> 80%
same,inhibition at 10 µM,[3]; [7],> 60%
CC(=O)N(O)CCCCCNC(=O)CCC(=O)N(O)CCCCCNC(=O)CCC(=O)N(O)CCCCCN [deferoxamine],IC50,[2]; [8],< 1 µM
same,potency range against liver stages,[2],submicromolar potencies
COc1cc(NC(C)CCCN)c2ncccc2c1 (stereo not drawn) [primaquine],IC50,[1],0.5 to 2.5 µM
same,enhancement (stimulation) of exflagellation,[3]; [9],15%
CCN(CC)CCCC(C)Nc1cc(OC)cc2cccnc12 (stereo not drawn) [diethylprimaquine],IC50,[1]; [4],0.5 to 2.5 µM
same,inhibition at 10 µM,[3]; [6],> 70%
CCN(CC)CCCNc1ccnc2cc(Cl)ccc12 [AQ-13],IC50,[2]; [10],< 3 µM
CCc1nc(N)nc(N)c1OCCCOc1ccccc1CCC(=O)O [P218],IC50,[2]; [8],< 1 µM
same,IC50,[2]; [11],< 0.01 µM
COc1cc(NC(C)CCCNC(C)=C2CCOC2=O)c2ncccc2c1 (stereo not drawn) [bulaquine],IC50,[1]; [4],0.5 to 2.5 µM
CCN(CC)Cc1cc(Nc2ccnc3cc(Cl)ccc23)ccc1O [amodiaquine],IC50,[1]; [12],0.002 to 0.01 µM
same,resistance / retention of potency against resistant strains,[1],do not lose potency when tested against chloroquine resistant strains
same,effect on exflagellation (words),[3]; [9],inhibited P. falciparum exflagellation
same,inhibition at 10 µM,[3]; [7],> 60%
same,IC50,[2]; [10],< 3 µM
N=C(N)c1ccc(OCCCCCOc2ccc(C(=N)N)cc2)cc1 [Pentamidine],IC50,[2]; [5],2.46 ± 0.57 µM
same,IC50,HepG2 cells,3.75 ± 1.1 µM
same,CI (cytotoxicity index),"HepG2 cells; human, 48 h",1.52
CCN(CC)CCCC(C)Nc1ccnc2cc(Cl)ccc12 (stereo not drawn) [chloroquine],fold reduction in potency,[1],6–100 fold
same,enhancement (stimulation) of exflagellation,[3]; [9],at least 20%
C[C@H]1[C@H](N2CCS(=O)(=O)CC2)O[C@@H]2O[C@@]3(C)CC[C@H]4[C@H](C)CC[C@@H]1[C@@]24OO3 [artemisone],IC50,[2]; [8],< 1 µM
same,IC50,[2]; [11],< 0.1 µM
CC(C)(C)NCc1cc(Nc2ccnc3cc(Cl)ccc23)c2c(c1O)CCCC2 [naphthoquine],IC50,[1]; [13],0.002 to 0.01 µM
same,resistance / retention of potency against resistant strains,[1],do not lose potency when tested against chloroquine resistant strains
same,IC50,[2]; [8],< 1 µM
same,IC50,[2]; [10],< 3 µM
C[C@]12CC[C@H](O)CC1=CC[C@@H]1[C@@H]2CC[C@]2(C)C(=O)CC[C@@H]12 [dehydroepiandrosterone],IC50,"[1]; asexual blood stage, both drug-resistant and -sensitive strains",1 to 10 µM
Cc1cc2nc3c(=O)[nH]c(=O)nc-3n(C[C@H](O)[C@H](O)[C@H](O)CO)c2cc1C [riboflavin],IC50,[1]; [4],1 to 10 µM
C=C[C@H]1C[N@@]2CC[C@H]1C[C@@H]2[C@@H](O)c1ccnc2ccc(OC)cc12 [quinidine],IC50,[2]; [8],< 1 µM
same,potency range against liver stages,[2],submicromolar potencies
CN(C)c1ccc2nc3ccc(=[N+](C)C)cc-3sc2c1 [methylene blue],IC50,[2]; [8],< 1 µM
same,IC50,[2]; [11],< 0.1 µM
Clc1ccc2c(N3CCN(CCCN4CCN(c5ccnc6cc(Cl)ccc56)CC4)CC3)ccnc2c1 [piperaquine],IC50,[1]; [13],0.002 to 0.01 µM
same,resistance / retention of potency against resistant strains,[1],do not lose potency when tested against chloroquine resistant strains
"OC(c1cc(C(F)(F)F)nc2c(C(F)(F)F)cccc12)C1CCCCN1 (racemic) [racemic mefloquine, mefloquine]",IC50,[1],< 0.01 µM
same,IC50,[2]; [5],1.69 ± 1.45 µM
same,IC50,HepG2 cells,1.73 ± 0.6 µM
same,CI (cytotoxicity index),"HepG2 cells; human, 48 h",1.02
CC[C@H]1OC(=O)[C@H](C)[C@@H](O[C@H]2C[C@@](C)(OC)[C@@H](O)[C@H](C)O2)[C@H](C)[C@@H](O[C@@H]2O[C@H](C)C[C@H](N(C)C)[C@H]2O)[C@](C)(O)C[C@@H](C)CN(C)[C@H](C)[C@@H](O)[C@]1(C)O [azithromycin],IC50,[1]; [4],1 to 10 µM
CCN(CCO)CCCC(C)Nc1ccnc2cc(Cl)ccc12 (stereo not drawn) [hydroxychloroquine],fold reduction in potency,[1],6–100 fold
same,enhancement (stimulation) of exflagellation,[3]; [9],at least 20%
C[C@H]1[C@H](OC(=O)CCC(=O)O)O[C@@H]2O[C@@]3(C)CC[C@H]4[C@H](C)CC[C@@H]1[C@@]24OO3 [artesunate],IC50,[1]; [12],0.001 to 0.015 µM
same,IC50,[2]; [8],< 1 µM
COc1cc(Cc2cnc(N)nc2N)cc(OC)c1OC [trimethoprim],IC50,[1]; [4],1 to 10 µM
CC1(C)N=C(N)N=C(N)N1c1ccc(Cl)cc1 [cycloguanil],IC50,"[1]; Erythrocyte, read-out: IC50 (erythrocyte schizont, Figure 5), box linked to blood stage schizont",< 0.004 µM
same,fold loss of potency,[1]; between sensitive and resistant strains,≥ 100 fold
same,IC50,[2]; [8],< 1 µM
same,IC50,[2]; [11],< 0.01 µM
CC(C)(C)NCc1ccc(Nc2ccnc3cc(Cl)ccc23)cc1O [tert-butyl-isoquine],IC50,[1]; [13],0.002 to 0.01 µM
same,resistance / retention of potency against resistant strains,[1],do not lose potency when tested against chloroquine resistant strains
same,effect on exflagellation (words),[3]; [9],inhibited P. falciparum exflagellation
same,effect on exflagellation (words),"[3]; 10 µM, 24 h exposure of mature gametocytes, listed as tert-butyl isoquine",inhibited exflagellation totally
same,inhibition at 10 µM,[3]; [7],> 60%
C[C@@H]1CC[C@H]2[C@@H](C)C(=O)O[C@@H]3O[C@@]4(C)CC[C@@H]1[C@]32OO4 [artemisinin],IC50,[1]; [12],0.001 to 0.015 µM

# Reference: paper PMC3283556, “The Activities of Current Antimalarial Drugs on the Life Cycle Stages of Plasmodium: A Comparative Study with Human and Rodent Parasites” (PLoS Medicine, 2012)
